From paper PMC12589562, “Structural and functional characterization of TgGSK3, a druggable kinase in Toxoplasma gondii” (Nature Communications, 2025) come the findings set out here.

pKd: −log10 of the molar value.

In one assay the target is T1, TgGSK3 (Toxoplasma gondii, UniProt A0A125YY75).
T1 construct: gene TGGT1_265330; kinase domain, aa 46-385 (orthorhombic crystal) and aa 20/21-385 (monoclinic crystal)
Put plainly: X-ray co-crystal structure ([…] Å and […] Å); microscale thermophoresis; Kinase-Glo inhibition (IC50 […]). It counts as binding.

The target in assay [1] is recombinant TgGSK3 (amino acids 21-385), C-terminal 6His (Toxoplasma gondii). Description: crystal structure; monoclinic crystal at 3.0 A of TgGSK3 (aa 20 to 385) with LY2090314; hanging drops in 5% MPD, 9% PEG 6000, 0.1 M Tris pH 7.5; crystals grew after several weeks; four subunits in the asymmetric unit.

Regarding `O=C1NC(=O)C(c2cnc3ccccn23)=C1c1cn2c3c(cc(F)cc13)CN(C(=O)N1CCCCC1)CC2` [compound 209, LY2090314], at TgGSK3, the pKd is 7.47. Consider “recombinant TgGSK3 (amino acids 21-385), C-terminal 6His (from UniProt A0A125YY75 21-385) (enzyme)”, for which the stoichiometry N in assay [1] turned out to be 2.
